Data published in patent US20080090903A1, “PHENYLALKYL CARBAMATE COMPOSITIONS” (priority 2006, published 2008).

Test: Forced degradation of the phenylalkyl carbamate as a function of pH (pH 9 carbonate buffer, LC-MS)
Assay type: physicochemical
Details: room temperature
Procedure: Under certain conditions of elevated temperature and relative humidity, such as, 25° C. and 40% RH, 25° C. and 60% RH, 25° C. and 80% RH, 45° C. and 20% RH, 45° C. and 40% RH, 45° C. and 60% RH, 45° C. and 80% RH, or 40° C. and75% RH and the like, an exposed compound or composition may be subject to degradation.
As shown in Scheme A, a sample of Compound A1, the carbamic acid (2R)-2-(2-chloro-phenyl)-2-hydroxy-ethyl ester compound of formula (Ib), was dissolved in a pH 9 carbonate buffer.
The sample was analyzed by LC-MS under reverse phase conditions using positive ion ESI and APCI detection.

For NC(=O)OC[C@H](O)c1ccccc1Cl [Compound A1, carbamic acid (2R)-2-(2-chloro-phenyl)-2-hydroxy-ethyl ester], the Degradation in solution was “degradation products had formed in appreciable amounts”.
